The target in one experiment is T1, F508del (Homo sapiens, UniProt P13569, DEL508-508).
T1 construct: expressed in transfected cells
T1 sequence (P13569 with tags, fused parts or gaps DEL508-508): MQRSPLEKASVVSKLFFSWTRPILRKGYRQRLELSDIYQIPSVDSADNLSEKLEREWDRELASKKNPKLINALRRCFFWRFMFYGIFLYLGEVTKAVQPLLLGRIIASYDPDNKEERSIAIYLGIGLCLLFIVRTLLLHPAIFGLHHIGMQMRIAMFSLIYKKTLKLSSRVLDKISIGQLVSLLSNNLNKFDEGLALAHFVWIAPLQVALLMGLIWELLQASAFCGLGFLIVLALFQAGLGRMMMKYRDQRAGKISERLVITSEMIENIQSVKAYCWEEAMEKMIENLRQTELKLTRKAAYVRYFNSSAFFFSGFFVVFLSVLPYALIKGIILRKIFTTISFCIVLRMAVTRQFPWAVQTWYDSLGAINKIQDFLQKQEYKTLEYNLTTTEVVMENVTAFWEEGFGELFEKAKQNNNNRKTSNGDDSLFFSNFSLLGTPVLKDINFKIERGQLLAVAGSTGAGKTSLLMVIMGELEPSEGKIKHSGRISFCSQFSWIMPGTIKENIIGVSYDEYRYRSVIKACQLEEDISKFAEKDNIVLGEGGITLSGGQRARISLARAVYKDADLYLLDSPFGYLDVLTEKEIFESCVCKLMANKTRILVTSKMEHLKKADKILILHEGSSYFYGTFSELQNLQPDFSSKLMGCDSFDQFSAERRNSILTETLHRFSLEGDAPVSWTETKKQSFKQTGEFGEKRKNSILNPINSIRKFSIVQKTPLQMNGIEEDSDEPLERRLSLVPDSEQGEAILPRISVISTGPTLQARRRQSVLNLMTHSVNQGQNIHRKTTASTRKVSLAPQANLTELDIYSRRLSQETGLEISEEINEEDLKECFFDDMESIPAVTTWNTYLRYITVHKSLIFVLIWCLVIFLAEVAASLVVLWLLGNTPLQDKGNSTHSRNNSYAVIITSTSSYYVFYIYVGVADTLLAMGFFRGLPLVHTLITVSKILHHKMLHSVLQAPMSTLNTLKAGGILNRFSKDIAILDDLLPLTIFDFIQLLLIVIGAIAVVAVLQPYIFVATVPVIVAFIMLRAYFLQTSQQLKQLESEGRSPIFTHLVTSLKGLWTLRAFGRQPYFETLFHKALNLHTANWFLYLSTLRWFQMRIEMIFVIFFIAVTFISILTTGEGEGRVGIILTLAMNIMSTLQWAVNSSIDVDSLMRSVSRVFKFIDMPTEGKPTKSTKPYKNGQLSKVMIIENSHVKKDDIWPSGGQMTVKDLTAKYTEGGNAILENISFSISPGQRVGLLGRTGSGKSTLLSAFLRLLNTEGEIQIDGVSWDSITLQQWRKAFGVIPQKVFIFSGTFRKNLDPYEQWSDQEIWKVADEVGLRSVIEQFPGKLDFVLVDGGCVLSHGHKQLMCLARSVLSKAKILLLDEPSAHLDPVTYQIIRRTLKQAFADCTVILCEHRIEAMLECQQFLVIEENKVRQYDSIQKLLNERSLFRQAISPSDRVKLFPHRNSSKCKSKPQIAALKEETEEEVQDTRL
The experiment can be described thus: Protocol 2: FRET membrane potential optical assay (VIPR), identification of correction compounds. It counts as cell-based. The settings on record: F508del CFTR modulator activity; compounds of Table 1; read-out: EC30. The gist of the method:
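Single-addition HTS format: F508del-expressing NIH3T3 cells pre-incubated 16 hrs at 37° C. ± compound, with 27° C. culture as positive control. Channel activation by forskolin 10 μM and genistein 20 μM upon switch to gluconate bath, pH 7.4; read-out is FRET-based depolarization signal.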
For the molecule `C[C@@H]1CN(c2nc(-c3ccc(C#N)cc3)ccc2C(=O)NS(=O)(=O)c2cccnc2N)C(C)(C)C1` [Compound 2096, N-[(2-amino-3-pyridyl)sulfonyl]-6-(4-cyanophenyl)-2-[(4S)-2,2,4-trimethylpyrrolidin-1-yl]pyridine-3-carboxamide], the EC30 is under 3000 nM.

Regarding `CC1CN(c2ncccc2C(=O)NS(=O)(=O)c2cccc(Oc3ccccc3Cl)n2)C(C)(C)C1` (stereo not drawn) [Compound 2298, N—[[6-(2-chlorophenoxy)-2-pyridyl]sulfonyl]-2-(2,2,4-trimethylpyrrolidin-1-yl)pyridine-3-carboxamide], the EC30 is under 3000 nM. On the same count and under the same terms, the same measure for `CC(C)COc1cc(F)cc(-c2ccc(C(=O)NS(=O)(=O)c3cccc(N)n3)c(N3CC(F)(F)C3)n2)c1` [Compound 2155, N-[(6-amino-2-pyridyl)sulfonyl]-2-(3,3-difluoroazetidin-1-yl)-6-(3-fluoro-5-isobutoxy-phenyl)pyridine-3-carboxamide]: 3000 to 10000 nM; for `Cc1cccc(-c2cnc(N3CC(C)CC3(C)C)c(C(=O)NS(=O)(=O)c3cccc(N)n3)c2)c1` (stereo not drawn) [Compound 2184, N-[(6-amino-2-pyridyl)sulfonyl]-5-(m-tolyl)-2-(2,2,4-trimethylpyrrolidin-1-yl)pyridine-3-carboxamide]: under 3000 nM; for `C[C@@H]1CN(c2nc(-c3ccc(C(F)(F)F)cc3)ccc2C(=O)NS(=O)(=O)c2cccc(N)n2)C(C)(C)C1` [Compound 2296, N-[(6-amino-2-pyridyl)sulfonyl]-6-[4-(trifluoromethyl)phenyl]-2-[(4S)-2,2,4-trimethylpyrrolidin-1-yl]pyridine-3-carboxamide]: under 3000 nM. As for `COc1cccc(-c2ccc(C(=O)NS(=O)(=O)c3ccc[nH]c3=O)c(N3C[C@@H](C)CC3(C)C)n2)n1` [Compound 2101, 6-(6-methoxy-2-pyridyl)-N-[(2-oxo-1H-pyridin-3-yl)sulfonyl]-2-[(4S)-2,2,4-trimethylpyrrolidin-1-yl]pyridine-3-carboxamide], the EC30 is under 3000 nM.

Regarding `CC1CN(c2ncccc2C(=O)NS(=O)(=O)c2cccc(OCc3ccc4ccccc4c3)n2)C(C)(C)C1` (stereo not drawn) [Compound 2151, N—[[6-(2-naphthylmethoxy)-2-pyridyl]sulfonyl]-2-(2,2,4-trimethylpyrrolidin-1-yl)pyridine-3-carboxamide], the EC30 was under 3000 nM. The same measure, in the same setting: the same measure for `CCCN(CC1CC1)c1cccc(S(=O)(=O)NC(=O)c2cccnc2N2CC(C)CC2(C)C)n1` (stereo not drawn) [Compound 2723]: under 3000 nM; for `CC1CN(c2ncccc2C(=O)NS(=O)(=O)c2cccc(Nc3cccc4ncccc34)n2)C(C)(C)C1` (stereo not drawn) [Compound 2074, N—[[6-(5-quinolylamino)-2-pyridyl]sulfonyl]-2-(2,2,4-trimethylpyrrolidin-1-yl)pyridine-3-carboxamide]: 3000 to 10000 nM. On the same count and under the same terms, the same measure for `C[C@@H]1CN(c2nc(-c3cc(F)ccc3F)ccc2C(=O)NS(=O)(=O)N2CC[C@H](N)C2)C(C)(C)C1` [Compound 2489, N-[(3S)-3-aminopyrrolidin-1-yl]sulfonyl-6-(2,5-difluorophenyl)-2-[(4S)-2,2,4-trimethylpyrrolidin-1-yl]pyridine-3-carboxamide]: 3000 to 10000 nM.

As to `CC1CN(c2ncccc2C(=O)NS(=O)(=O)c2cccc(N3CCc4ccc(F)cc4C3)n2)C(C)(C)C1` (stereo not drawn) [Compound 2518, N—[[6-(7-fluoro-3,4-dihydro-1H-isoquinolin-2-yl)-2-pyridyl]sulfonyl]-2-(2,2,4-trimethylpyrrolidin-1-yl)pyridine-3-carboxamide], the EC30 is under 3000 nM.

As for `Cc1ccc(-c2ccc(C(=O)NS(=O)(=O)N3CC[C@H](N)C3)c(N3C[C@@H](C)CC3(C)C)n2)cc1F` [Compound 2587, N-[(3S)-3-aminopyrrolidin-1-yl]sulfonyl-6-(3-fluoro-4-methyl-phenyl)-2-[(4S)-2,2,4-trimethylpyrrolidin-1-yl]pyridine-3-carboxamide], the EC30 was 3000 to 10000 nM. Consider `CC1CN(c2ncccc2C(=O)NS(=O)(=O)c2cccc(OCc3ccc(C(C)C)cc3)n2)C(C)(C)C1` (stereo not drawn) [Compound 2415, N—[[6-[(4-isopropylphenyl)methoxy]-2-pyridyl]sulfonyl]-2-(2,2,4-trimethylpyrrolidin-1-yl)pyridine-3-carboxamide], for which the EC30 was under 3000 nM. With `CC1CN(c2ncccc2C(=O)NS(=O)(=O)c2cccc(N3CCN(Cc4ccccn4)CC3)n2)C(C)(C)C1` (stereo not drawn) [Compound 2504, N—[[6-[4-(2-pyridylmethyl)piperazin-1-yl]-2-pyridyl]sulfonyl]-2-(2,2,4-trimethylpyrrolidin-1-yl)pyridine-3-carboxamide], the EC30 fell in the range of 3000 to 10000 nM.

The experiment is the same for the next values; noted with them: Table 3; compounds of Table 1 as modulators of CFTR activity; protocol not stated.
Consider `Cc1cc(C)c(Oc2nc(-c3cc(CO)ccc3F)ccc2C(=O)NS(=O)(=O)c2cccc(N)n2)c(C)c1` [Compound 727, N-[(6-amino-2-pyridyl)sulfonyl]-6-[2-fluoro-5-(hydroxymethyl)phenyl]-2-(2,4,6-trimethylphenoxy)pyridine-3-carboxamide], for which the EC30 result is reported as “+ (“+” means greater than 10 uM)”. Turning to `CCOc1ccc(-c2ccc(C(=O)NS(=O)(=O)c3ccn[nH]3)c(N3CCC(C)CC3)n2)cc1` [Compound 445, 6-(4-ethoxyphenyl)-2-(4-methyl-1-piperidyl)-N-(1H-pyrazol-5-ylsulfonyl)pyridine-3-carboxamide], the EC30 entry was “+ (“+” means greater than 10 uM)”.

As to `Cc1cc(C)c(Oc2nc(C(C)(C)C)ccc2C(=O)NS(=O)(=O)c2cccnc2N)c(C)c1` [Compound 235, N-[(2-amino-3-pyridyl)sulfonyl]-6-tert-butyl-2-(2,4,6-trimethylphenoxy)pyridine-3-carboxamide], the EC30 result is listed as “+++ (“+++” means <3 uM)”.

For the molecule `Cc1cccc(C)c1Cn1nc(-c2ccc(OC(F)(F)F)cc2)cc1C(=O)NS(=O)(=O)c1ccccc1` [Compound 159, N-(benzenesulfonyl)-2-[(2,6-dimethylphenyl)methyl]-5-[4-(trifluoromethoxy)phenyl]pyrazole-3-carboxamide], the EC30 entry is “+++ (“+++” means <3 uM)”. With `CCOc1ccc(-c2ccc(C(=O)NS(=O)(=O)c3cccc(N)n3)c(-c3ccc(C)cc3)n2)cc1` [Compound 409, N-[(6-amino-2-pyridyl)sulfonyl]-6-(4-ethoxyphenyl)-2-(p-tolyl)pyridine-3-carboxamide], the EC30 result is given as “+ (“+” means greater than 10 uM)”. Take `Cc1c(Cn2nc(C(C)(C)C)cc2C(=O)NS(=O)(=O)c2ccccc2)cccc1C(F)(F)F` [Compound 98, N-(benzenesulfonyl)-5-tert-butyl-2-[[2-methyl-3-(trifluoromethyl)phenyl]methyl]pyrazole-3-carboxamide]: the EC30 result is on record as “+++ (“+++” means <3 uM)”. For `Cc1cc(C)c(Oc2nc(-c3cccc(OCC(C)C)c3)ccc2C(=O)NS(=O)(=O)c2ccc[nH]c2=O)c(C)c1` [Compound 125, 6-(3-isobutoxyphenyl)-N-[(2-oxo-1H-pyridin-3-yl)sulfonyl]-2-(2,4,6-trimethylphenoxy)pyridine-3-carboxamide], the EC30 result is “++ (“++” means between 3 uM and 10 uM)”.

Take `CC(c1ccccc1)n1c(C(=O)NS(=O)(=O)c2ccncc2)cc2c(F)cccc21` (stereo not drawn) [Compound 192, 4-fluoro-1-(1-phenylethyl)-N-(4-pyridylsulfonyl)indole-2-carboxamide]: the EC30 result was “+++ (“+++” means <3 uM)”. For `Cc1ccnc(C)c1Oc1nc(C(C)(C)C)ccc1C(=O)NS(=O)(=O)c1cccc(N)n1` [Compound 460, N-[(6-amino-2-pyridyl)sulfonyl]-6-tert-butyl-2-[(2,4-dimethyl-3-pyridyl)oxy]pyridine-3-carboxamide], the EC30 result is “++ (“++” means between 3 uM and 10 uM)”. Take `Cc1cc(C)c(Oc2nc(C3=CCC(C)(C)CC3)ccc2C(=O)NS(=O)(=O)c2ccc[nH]c2=O)c(C)c1` [Compound 573, 6-(4,4-dimethylcyclohexen-1-yl)-N-[(2-oxo-1H-pyridin-3-yl)sulfonyl]-2-(2,4,6-trimethylphenoxy)pyridine-3-carboxamide]: the EC30 result was “+++ (“+++” means <3 uM)”. Regarding `CC(C)c1ccc(-c2ccc(C(=O)NS(=O)(=O)c3cccc(N)n3)c(N3C[C@@H](C)CC3(C)C)n2)cc1` [Compound 630, N-[(6-amino-2-pyridyl)sulfonyl]-6-(4-isopropylphenyl)-2-[(4S)-2,2,4-trimethylpyrrolidin-1-yl]pyridine-3-carboxamide], the EC30 result was “+++ (“+++” means <3 uM)”. For `CC(C)Oc1ccc(-c2ccc(C(=O)NS(=O)(=O)c3cccc(N)n3)c(N3CCC(C)C3(C)C)n2)cn1` (stereo not drawn) [Compound 464, N-[(6-amino-2-pyridyl)sulfonyl]-6-(6-isopropoxy-3-pyridyl)-2-(2,2,3-trimethylpyrrolidin-1-yl)pyridine-3-carboxamide], the EC30 entry is on record as “+++ (“+++” means <3 uM)”. Regarding `CC(C)(C)c1cc(C(=O)NS(=O)(=O)c2ccccc2)n(Cc2cc(F)ccc2C(F)(F)F)n1` [Compound 3, 3-(tert-butyl)-1-(5-fluoro-2-(trifluoromethyl)benzyl)-N-(phenylsulfonyl)-1H-pyrazole-5-carboxamide], the EC30 result is recorded as “+++ (“+++” means <3 uM)”. Consider `Cc1cc(C)c(Oc2nc3ccccc3cc2C(=O)NS(=O)(=O)c2cccc(N)c2)c(C)c1` [Compound 260, N-(3-aminophenyl)sulfonyl-2-(2,4,6-trimethylphenoxy)quinoline-3-carboxamide], for which the concentration for an effect of 30% (EC30) result is “++ (“++” means between 3 uM and 10 uM)”. For the molecule `Cc1cc(C)c(Oc2nc(-c3ccc(N(C)C)nc3)ccc2C(=O)NS(=O)(=O)c2cccc(N)n2)c(C)c1` [Compound 787, N-[(6-amino-2-pyridyl)sulfonyl]-6-[6-(dimethylamino)-3-pyridyl]-2-(2,4,6-trimethylphenoxy)pyridine-3-carboxamide], the EC30 result is listed as “+++ (“+++” means <3 uM)”.

On to `Cc1cc(C)c(Oc2nc(-c3ccc(Cl)cc3)ccc2C(=O)NS(=O)(=O)c2cccc(N)n2)c(C)c1` [Compound 234, N-[(6-amino-2-pyridyl)sulfonyl]-6-(4-chlorophenyl)-2-(2,4,6-trimethylphenoxy)pyridine-3-carboxamide], for which the EC30 entry is listed as “+++ (“+++” means <3 uM)”.

For orientation: EC30 means the concentration at which the effect reaches the 30% level.
